Usually inhibition stands for how much of the control response was suppressed. One may read the IC50 as the concentration that inhibits the measured activity by half. A high value points to weaker potency in that assay.

This note sets out measurements from patent publication US20200247800A1, “SUBSTITUTED BICYCLIC HETEROCYCLIC COMPOUNDS AS NADPH OXIDASE INHIBITORS” (Glenmark Pharmaceuticals S.A., priority 2017, published 2020).

The target of this experiment is T1, human NOX4 (Homo sapiens, UniProt Q9NPH5).
T1 construct: expressed in transfected cells; membrane fraction used
T1 sequence (Q9NPH5 1-578): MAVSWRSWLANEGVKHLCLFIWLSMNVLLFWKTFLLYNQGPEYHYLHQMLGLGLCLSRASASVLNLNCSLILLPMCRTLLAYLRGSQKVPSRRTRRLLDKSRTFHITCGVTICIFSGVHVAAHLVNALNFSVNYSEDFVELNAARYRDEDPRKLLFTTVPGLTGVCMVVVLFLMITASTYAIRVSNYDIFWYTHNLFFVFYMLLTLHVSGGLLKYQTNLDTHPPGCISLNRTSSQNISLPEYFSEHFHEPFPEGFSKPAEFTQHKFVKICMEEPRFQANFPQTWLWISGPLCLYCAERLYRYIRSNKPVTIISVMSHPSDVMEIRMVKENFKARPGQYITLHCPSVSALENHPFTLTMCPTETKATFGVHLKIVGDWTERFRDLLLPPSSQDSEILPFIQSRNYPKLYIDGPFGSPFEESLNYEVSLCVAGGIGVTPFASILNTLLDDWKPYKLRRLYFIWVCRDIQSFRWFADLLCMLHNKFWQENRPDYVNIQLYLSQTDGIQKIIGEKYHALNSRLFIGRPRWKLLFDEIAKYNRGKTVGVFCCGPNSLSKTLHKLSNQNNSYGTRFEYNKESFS
T1 sequence (P13498 1-195 partner): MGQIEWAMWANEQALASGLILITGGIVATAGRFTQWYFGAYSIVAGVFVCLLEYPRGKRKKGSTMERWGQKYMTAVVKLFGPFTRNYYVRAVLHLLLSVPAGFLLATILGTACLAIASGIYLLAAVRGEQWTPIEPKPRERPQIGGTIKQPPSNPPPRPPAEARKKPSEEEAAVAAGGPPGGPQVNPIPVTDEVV
The experiment can be described thus: Cell free membrane based in vitro NOX4 assay: H2O2 production by membranes expressing human NOX4, measured with Amplex Red. The experiment is classed as biochemical. As to conditions: for inhibition at 1 µM: 1.0 μM compound, read-out: Percentage inhibition at 1.0 μM; for inhibition at 10 µM: 10.0 μM compound, read-out: Percentage inhibition at 10.0 μM; for IC50: class symbols. The gist of the method: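 Membranes from HEK cells stably overexpressing human NOX4 were preincubated 20 min with inhibitor in pH 7.4 HEPES buffer containing HRP and Amplex Red, then NADPH was added. H2O2 was followed for 10 min by fluorescence (ex 544/em 590 nm). IC50 from nonlinear regression of % maximal uninhibited response.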

Regarding `CCc1nn(CCN2CCOCC2)c2[nH]c(-c3c(F)cccc3F)c(O)c(=O)c12` [Example 156, 6-(2,6-difluorophenyl)-3-ethyl-5-hydroxy-1-(2-morpholinoethyl)-1H-pyrazolo[3,4-b]pyridin-4(7H)-one], the inhibition at 1 µM was found to be 97.4%, the inhibition at 10 µM was determined as 100% and the IC50 was less than 50 nM.
The corresponding values for `CCc1nn(CCn2cccn2)c2[nH]c(-c3ccccc3Cl)c(O)c(=O)c12` [Example 157, 1-(2-(1H-pyrazol-1-yl)ethyl)-6-(2-chlorophenyl)-3-ethyl-5-hydroxy-1H-pyrazolo[3,4-b]pyridin-4(7H)-one] are 95.2%, 98.6% and 50 to 100 nM.
The corresponding values for `CCc1nn(CCn2cccn2)c2[nH]c(-c3c(F)cccc3F)c(O)c(=O)c12` [Example 158, 1-(2-(1H-pyrazol-1-yl)ethyl)-6-(2,6-difluorophenyl)-3-ethyl-5-hydroxy-1H-pyrazolo[3,4-b]pyridin-4(7H)-one] are 100%, 100% and less than 50 nM.
As to `CCc1nn(C)c2[nH]c(-c3ccc(F)c(C(F)(F)F)c3)c(O)c(=O)c12` [Example 159, 3-Ethyl-6-(4-fluoro-3-(trifluoromethyl)phenyl)-5-hydroxy-1-methyl-1H-pyrazolo[3,4-b]pyridine-4(7H)-one], the inhibition at 1 µM was 71.9% and the IC50 was more than 150 nM.
In the case of `CCc1nn(C)c2[nH]c(-c3cccc(C(F)(F)F)c3F)c(O)c(=O)c12` [Example 160, 3-Ethyl-6-(2-fluoro-3-(trifluoromethyl)phenyl)-5-hydroxy-1-methyl-1H-pyrazolo[3,4-b]pyridine-4(7H)-one], the inhibition at 1 µM worked out at 80.7%, the inhibition at 10 µM turned out to be 68.9% and the half-maximal inhibitory concentration (IC50) was more than 150 nM.
On to `CCc1nn(C)c2[nH]c(-c3ccc(F)cc3F)c(O)c(=O)c12` [Example 161, 6-(2,4-Difluorophenyl)-3-ethyl-5-hydroxy-1-methyl-1H-pyrazolo[3,4-b]pyridin-4(7H)-one], for which the inhibition at 1 µM amounted to 71.6% and the IC50 was more than 150 nM.
With `CCc1nn(C)c2[nH]c(-c3cc(F)cc(F)c3)c(O)c(=O)c12` [Example 162, 6-(3,5-Difluorophenyl)-3-ethyl-5-hydroxy-1-methyl-1H-pyrazolo[3,4-b]pyridine-4(7H)-one], the inhibition at 1 µM came to 74.8% and the 50% inhibitory concentration (IC50) was more than 150 nM.
The corresponding values for `CCc1nn(C)c2[nH]c(-c3cc(F)ccc3F)c(O)c(=O)c12` [Example 163, 6-(2,5-Difluorophenyl)-3-ethyl-5-hydroxy-1-methyl-1H-pyrazolo[3,4-b]pyridine-4(7H)-one] are 72.8% and more than 150 nM.
Molecule `CCc1nn(CCN2CCOCC2)c2[nH]c(-c3cccc(C(F)(F)F)c3F)c(O)c(=O)c12` [Example 164, 3-Ethyl-6-(2-fluoro-3-(trifluoromethyl)phenyl)-5-hydroxy-1-(2-morpholinoethyl)-1H-pyrazolo[3,4-b]pyridin-4(7H)-one] returned a half-inhibitory concentration (IC50) of more than 150 nM.
Turning to `CCc1nn(CCN2CCN(C)CC2)c2[nH]c(-c3ccccc3Cl)c(O)c(=O)c12` [Example 165, 6-(2-Chlorophenyl)-3-ethyl-5-hydroxy-1-(2-(4-methylpiperazin-1-yl)ethyl)-1H-pyrazolo[3,4-b]pyridine-4(7H)-one], the inhibition at 1 µM is 99.9%, the inhibition at 10 µM amounted to 80.1% and the IC50 is less than 50 nM.
For `CCc1nn(CCN2CCN(C)CC2)c2[nH]c(-c3c(F)cccc3F)c(O)c(=O)c12` [Example 166, 6-(2,6-Difluorophenyl)-3-ethyl-5-hydroxy-1-(2-(4-methylpiperazin-1-yl)ethyl)-1H-pyrazolo[3,4-b]pyridine-4(7H)-one] the same measures were 96.4%, 95.5% and less than 50 nM.
The corresponding values for `CCc1nn(CCN2CCOCC2=O)c2[nH]c(-c3ccccc3Cl)c(O)c(=O)c12` [Example 167, 4-(2-(6-(2-Chlorophenyl)-3-ethyl-5-hydroxy-4-oxo-4,7-dihydro-1H-pyrazolo[3,4-b]pyridin-1-yl)ethyl)morpholin-3-one] are 86%, 71.8% and 50 to 100 nM.
Regarding `CCc1nn(CCN2CCOCC2=O)c2[nH]c(-c3c(F)cccc3F)c(O)c(=O)c12` [Example 168, 4-(2-(6-(2,6-Difluorophenyl)-3-ethyl-5-hydroxy-4-oxo-4,7-dihydro-1H-pyrazolo[3,4-b]pyridin-1-yl)ethyl)morpholin-3-one], the inhibition at 1 µM came to 94.9%, the inhibition at 10 µM was found to be 93.5% and the 50% inhibitory concentration (IC50) lay within 50 to 100 nM.
Turning to `Cc1nn(CCN2CCN(C)CC2)c2[nH]c(-c3c(F)cccc3F)c(O)c(=O)c12` [Example 169, 6-(2,6-Difluorophenyl)-5-hydroxy-3-methyl-1-(2-(4-methylpiperazin-1-yl)ethyl)-1H-pyrazolo[3,4-b]pyridin-4(7H)-one], the inhibition at 1 µM stood at 83.7% and the IC50 was 50 to 100 nM.
Consider `CCCn1nc(CC)c2c(=O)c(O)c(-c3ccc(F)cc3F)[nH]c21` [Example 170, 6-(2,4-Difluorophenyl)-3-ethyl-5-hydroxy-1-propyl-1H-pyrazolo[3,4-b]pyridin-4(7H)-one], for which the inhibition at 1 µM was 74.4% and the IC50 was more than 150 nM.
In the case of `CCc1nn(CCN2CCN(CC)CC2)c2[nH]c(-c3c(F)cccc3F)c(O)c(=O)c12` [Example 172, 6-(2,6-Difluorophenyl)-3-ethyl-1-(2-(4-ethylpiperazin-1-yl)ethyl)-5-hydroxy-1H-pyrazolo[3,4-b]pyridin-4(7H)-one], the inhibition at 1 µM was determined as 80.9% and the IC50 is more than 150 nM.
As to `CCc1nn(CCN2CCN(CC)CC2)c2[nH]c(-c3ccccc3Cl)c(O)c(=O)c12` [Example 173, 6-(2-Chlorophenyl)-3-ethyl-1-(2-(4-ethylpiperazin-1-yl)ethyl)-5-hydroxy-1H-pyrazolo[3,4-b]pyridin-4(7H)-one], the inhibition at 1 µM was 76.1%, the inhibition at 10 µM was found to be 69.7% and the half-inhibitory concentration (IC50) was more than 150 nM.
Regarding `CCc1nn(CCCN2CCOCC2)c2[nH]c(-c3cccc(C(F)(F)F)c3F)c(O)c(=O)c12` [Example 174, 3-Ethyl-6-(2-fluoro-3-(trifluoromethyl)phenyl)-5-hydroxy-1-(3-morpholinopropyl)-1H-pyrazolo[3,4-b]pyridin-4(7H)-one], the inhibition at 1 µM was determined as 85.6% and the half-inhibitory concentration (IC50) lay in the range of 100 to 150 nM.
`CCc1nn(CCCN2CCOCC2)c2[nH]c(-c3c(F)cccc3F)c(O)c(=O)c12` [Example 175, 6-(2,6-Difluorophenyl)-3-ethyl-5-hydroxy-1-(3-morpholinopropyl)-1H-pyrazolo[3,4-b]pyridin-4(7H)-one]: the inhibition at 1 µM was 84%, the inhibition at 10 µM was found to be 81.3% and the concentration for half-maximal inhibition (IC50) lay within 100 to 150 nM.
Regarding `CCc1nn(CCCN2CCOCC2)c2[nH]c(-c3ccc(F)cc3F)c(O)c(=O)c12` [Example 176, 6-(2,4-Difluorophenyl)-3-ethyl-5-hydroxy-1-(3-morpholinopropyl)-1H-pyrazolo[3,4-b]pyridin-4(7H)-one], the inhibition at 1 µM is 81.3% and the IC50 is more than 150 nM.
